In patent US20240228488A1 (TAKEDA PHARMACEUTICAL COMPANY LIMITED, priority 2021, published 2024) one finds EC50 data, which are given here for 24 molecules.

Some results are limits rather than exact numbers.

human activated kallikrein enzyme, sequence (P03952 391-638 limits assumed): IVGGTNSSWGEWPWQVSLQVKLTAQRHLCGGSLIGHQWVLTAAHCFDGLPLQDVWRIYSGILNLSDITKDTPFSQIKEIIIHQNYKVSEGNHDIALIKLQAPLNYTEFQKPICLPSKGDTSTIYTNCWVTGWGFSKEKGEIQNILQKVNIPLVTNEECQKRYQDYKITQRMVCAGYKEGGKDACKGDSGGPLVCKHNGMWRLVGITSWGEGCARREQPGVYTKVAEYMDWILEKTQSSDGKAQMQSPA
human activated kallikrein enzyme, sequence (P03952 20-390 partner limits assumed): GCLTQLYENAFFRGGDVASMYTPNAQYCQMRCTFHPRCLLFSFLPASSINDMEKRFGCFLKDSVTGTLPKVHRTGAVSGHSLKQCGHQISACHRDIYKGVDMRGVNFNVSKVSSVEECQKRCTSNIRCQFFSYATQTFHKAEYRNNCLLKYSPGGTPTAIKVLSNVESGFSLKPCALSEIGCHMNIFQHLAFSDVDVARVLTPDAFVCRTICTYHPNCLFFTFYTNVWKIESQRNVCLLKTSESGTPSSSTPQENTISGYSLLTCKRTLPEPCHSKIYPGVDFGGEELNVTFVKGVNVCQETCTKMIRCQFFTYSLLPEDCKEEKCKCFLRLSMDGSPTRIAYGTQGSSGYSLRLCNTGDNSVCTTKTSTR

The test addresses human activated kallikrein enzyme (Homo sapiens, UniProt P03952). Put plainly: Plasma kallikrein inhibition, fluorogenic PFR-AMC substrate, 500 pM activated kallikrein format. The class given is biochemical. As to conditions: 500 pM activated kallikrein, 300 uM PFR-AMC, 30 min preincubation, 10 min reaction; read-out: Primary Dose Response Assay: Average EC50. The procedure, abridged: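 500 pM enz + cpd, 30 min RT preinc; start w/ PFR-AMC 300 uM; 10 min RT; Ex380/Em460. Buffer: Tris 20 mM pH 7.5, EDTA 1 mM, NaCl 150 mM, PEG-400 0.1%, Triton 0.1%. EC50.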
With `O=C(Nc1ncccc1OCc1cn2cc(C3CC3)ccc2n1)[C@H]1C[C@@H]1c1cccc(Cl)c1` [Example 569, (1S,2S)-2-(3-chlorophenyl)-N-(3-((6-cyclopropylimidazo[1,2-a]pyridin-2-yl)methoxy)pyridin-2-yl)cyclopropane-1-carboxamide], the EC50 is 100 to 1000 nM.
As for `O=C(Nc1nccnc1OCc1cn2cc(C3CC3)ccc2n1)[C@H]1C[C@@H]1c1cccc(Cl)c1` [Example 570, (1S,2S)-2-(3-chlorophenyl)-N-(3-((6-cyclopropylimidazo[1,2-a]pyridin-2-yl)methoxy)pyrazin-2-yl)cyclopropane-1-carboxamide], the figure is 10 to 100 nM; as for `Cc1ccnc([C@H]2C[C@@H]2C(=O)Nc2cc(OCc3cn4cc(C5CC5)cc(N5CC6CC6C5=O)c4n3)cnn2)n1` (stereo partly drawn) [Example 571, (1S,2S)-N-(5-((6-cyclopropyl-8-(2-oxo-3-azabicyclo[3.1.0]hexan-3-yl)imidazo[1,2-a]pyridin-2-yl)methoxy)pyridazin-3-yl)-2-(4-methylpyrimidin-2-yl)cyclopropane-1-carboxamide], below 1 nM; as for `O=C(Nc1nccc2nn(Cc3cn4cc(C5CC5)ccc4n3)cc12)[C@H]1C[C@@H]1c1cc(Cl)ccn1` [Example 577, (1S,2S)-2-(4-chloropyridin-2-yl)-N-(2-((6-cyclopropylimidazo[1,2-a]pyridin-2-yl)methyl)-2H-pyrazolo[4,3-c]pyridin-4-yl)cyclopropane-1-carboxamide], below 1 nM.
In the case of `O=C(Nc1nccc2nn(Cc3cn4cc(C5CC5)ccc4n3)cc12)[C@H]1C[C@@H]1c1cccc(Cl)c1` [Example 580, (1S,2S)-2-(3-chlorophenyl)-N-(2-((6-cyclopropylimidazo[1,2-a]pyridin-2-yl)methyl)-2H-pyrazolo[4,3-c]pyridin-4-yl)cyclopropane-1-carboxamide] it was 1 to 10 nM; in that of `Cc1cc2nn(Cc3cn4cc(C5CC5)ccc4n3)cc2c(NC(=O)[C@H]2C[C@@H]2c2cccc(Cl)c2)n1` [Example 581, (1S,2S)-2-(3-chlorophenyl)-N-(2-((6-cyclopropylimidazo[1,2-a]pyridin-2-yl)methyl)-6-methyl-2H-pyrazolo[4,3-c]pyridin-4-yl)cyclopropane-1-carboxamide], 1 to 10 nM; in that of `O=C(Nc1nccc2nn(Cc3cn4cc(C5CC5)ccc4n3)nc12)[C@H]1C[C@@H]1c1cccc(Cl)c1` [Example 583, (1S,2S)-2-(3-chlorophenyl)-N-(2-((6-cyclopropylimidazo[1,2-a]pyridin-2-yl)methyl)-2H-[1,2,3]triazolo[4,5-c]pyridin-4-yl)cyclopropane-1-carboxamide], 1 to 10 nM.
As for `O=C(Nc1nccc2c1cnn2Cc1cn2cc(C3CC3)ccc2n1)[C@H]1C[C@@H]1c1cccc(Cl)c1` [Example 584, (1S,2S)-2-(3-chlorophenyl)-N-(1-((6-cyclopropylimidazo[1,2-a]pyridin-2-yl)methyl)-1H-pyrazolo[4,3-c]pyridin-4-yl)cyclopropane-1-carboxamide], the EC50 fell in the range of 1000 to 6000 nM.
As for `O=C(NCc1cn(Cc2cn3cc(C4CC4)cc(-n4cnnc4)c3n2)nn1)[C@H]1C[C@@H]1c1cccc(Cl)c1` [Example 591, (1S,2S)-2-(3-chlorophenyl)-N-((1-((6-cyclopropyl-8-(4H-1,2,4-triazol-4-yl)imidazo[1,2-a]pyridin-2-yl)methyl)-1H-1,2,3-triazol-4-yl)methyl)cyclopropane-1-carboxamide], the figure is 1 to 10 nM.
As for `O=C(Nc1ncncc1OCc1cn2cc(C3CC3)ccc2n1)[C@H]1C[C@@H]1c1cccc(Cl)c1` [Example 596, (1S,2S)-2-(3-chlorophenyl)-N-(5-((6-cyclopropylimidazo[1,2-a]pyridin-2-yl)methoxy)pyrimidin-4-yl)cyclopropane-1-carboxamide], the figure is 10 to 100 nM; as for `O=C(Nc1cc2c(cn1)OCCN2Cc1cn2cc(C3CC3)ccc2n1)[C@H]1C[C@@H]1c1cccc(Cl)c1` [Example 597, (1S,2S)-2-(3-chlorophenyl)-N-(1-((6-cyclopropylimidazo[1,2-a]pyridin-2-yl)methyl)-2,3-dihydro-1H-pyrido[3,4-b][1,4]oxazin-7-yl)cyclopropane-1-carboxamide], 1 to 10 nM; as for `O=C(Nc1nnc(NCc2cn3cc(C4CC4)ccc3n2)s1)[C@H]1C[C@@H]1c1cccc(Cl)c1` [Example 606, (1S,2S)-2-(3-chlorophenyl)-N-(5-(((6-cyclopropylimidazo[1,2-a]pyridin-2-yl)methyl)amino)-1,3,4-thiadiazol-2-yl)cyclopropane-1-carboxamide], above 6000 nM.
In the case of `O=C(Nc1noc(NCc2cn3cc(C4CC4)ccc3n2)n1)[C@H]1C[C@@H]1c1cccc(Cl)c1` [Example 615, (1S,2S)-2-(3-chlorophenyl)-N-(5-(((6-cyclopropylimidazo[1,2-a]pyridin-2-yl)methyl)amino)-1,2,4-oxadiazol-3-yl)cyclopropane-1-carboxamide] it was 1000 to 6000 nM.
Turning to `CO[C@H]1C[C@H](c2cn3cc(C4CC4)ccc3n2)N(c2cc(NC(=O)[C@H]3C[C@@H]3c3cccc(Cl)c3)ncn2)C1` [Example 616, (1S,2S)-2-(3-chlorophenyl)-N-(6-((2R,4S)-2-(6-cyclopropylimidazo[1,2-a]pyridin-2-yl)-4-methoxypyrrolidin-1-yl)pyrimidin-4-yl)cyclopropane-1-carboxamide], the EC50 is above 6000 nM.
For `Cc1ccnc([C@H]2C[C@@H]2C(=O)Nc2nccc3nc(Cc4cn5cc(C6CC6)cc(N6CC(=O)N(C)C6=O)c5n4)oc23)n1` [Example 629, (1S,2S)—N-(2-((6-cyclopropyl-8-(3-methyl-2,4-dioxoimidazolidin-1-yl)imidazo[1,2-a]pyridin-2-yl)methyl)oxazolo[5,4-c]pyridin-4-yl)-2-(4-methylpyrimidin-2-yl)cyclopropane-1-carboxamide], the EC50 was below 1 nM.
As for `Cc1ccnc([C@H]2C[C@@H]2C(=O)Nc2cn3c(Cc4cn5cc(C6CC6)cc(N6CC(=O)N(C)C6=O)c5n4)nnc3cn2)n1` [Example 630, (1S,2S)—N-(3-((6-cyclopropyl-8-(3-methyl-2,4-dioxoimidazolidin-1-yl)imidazo[1,2-a]pyridin-2-yl)methyl)-[1,2,4]triazolo[4,3-a]pyrazin-6-yl)-2-(4-methylpyrimidin-2-yl)cyclopropane-1-carboxamide], the figure is 1 to 10 nM; as for `Cc1ccnc([C@H]2C[C@@H]2C(=O)Nc2ncc3c(n2)N(Cc2cn4cc(C5CC5)cc(N5CC(=O)N(C)C5=O)c4n2)CCO3)n1` [Example 631], below 1 nM; as for `Cc1ccnc([C@H]2C[C@@H]2C(=O)Nc2ccc(F)c(NCc3cn4cc(C5CC5)cc(N5CC(=O)N(C)C5=O)c4n3)c2)n1` [Example 656, (1S,2S)—N-(3-(((6-cyclopropyl-8-(3-methyl-2,4-dioxoimidazolidin-1-yl)imidazo[1,2-a]pyridin-2-yl)methyl)amino)-4-fluorophenyl)-2-(4-methylpyrimidin-2-yl)cyclopropane-1-carboxamide], below 1 nM.
As for `Cc1ccnc([C@H]2C[C@@H]2C(=O)Nc2ccc(F)c(OCc3cn4cc(C5CC5)cc(N5CC(=O)N(C)C5=O)c4n3)c2)n1` [Example 657, (1S,2S)—N-(3-((6-cyclopropyl-8-(3-methyl-2,4-dioxoimidazolidin-1-yl)imidazo[1,2-a]pyridin-2-yl)methoxy)-4-fluorophenyl)-2-(4-methylpyrimidin-2-yl)cyclopropane-1-carboxamide], the figure is below 1 nM; as for `Cc1ccnc([C@H]2C[C@@H]2C(=O)Nc2cc(F)c(Cl)c(NCc3cn4cc(C5CC5)cc(N5CC(=O)N(C)C5=O)c4n3)c2)n1` [Example 658, (1S,2S)—N-(4-chloro-3-(((6-cyclopropyl-8-(3-methyl-2,4-dioxoimidazolidin-1-yl)imidazo[1,2-a]pyridin-2-yl)methyl)amino)-5-fluorophenyl)-2-(4-methylpyrimidin-2-yl)cyclopropane-1-carboxamide], below 1 nM; as for `Cc1ccnc([C@H]2C[C@@H]2C(=O)Nc2cc(NCc3cn4cc(C5CC5)cc(N5CC(=O)N(C)C5=O)c4n3)c(F)cc2F)n1` [Example 659, (1S,2S)—N-(5-(((6-cyclopropyl-8-(3-methyl-2,4-dioxoimidazolidin-1-yl)imidazo[1,2-a]pyridin-2-yl)methyl)amino)-2,4-difluorophenyl)-2-(4-methylpyrimidin-2-yl)cyclopropane-1-carboxamide], 1 to 10 nM.
In the case of `Cc1ccnc([C@H]2C[C@@H]2C(=O)Nc2cc(OCc3ccccc3)cc(OCc3cn4cc(C5CC5)cc(N5CC(=O)N(C)C5=O)c4n3)n2)n1` [Example 660, (1S,2S)—N-(4-(benzyloxy)-6-((6-cyclopropyl-8-(3-methyl-2,4-dioxoimidazolidin-1-yl)imidazo[1,2-a]pyridin-2-yl)methoxy)pyridin-2-yl)-2-(4-methylpyrimidin-2-yl)cyclopropane-1-carboxamide] it was 10 to 100 nM; in that of `Cc1ccnc([C@H]2C[C@@H]2C(=O)Nc2cc(O)cc(OCc3cn4cc(C5CC5)cc(N5CC(=O)N(C)C5=O)c4n3)n2)n1` [Example 661, (1S,2S)—N-(6-((6-cyclopropyl-8-(3-methyl-2,4-dioxoimidazolidin-1-yl)imidazo[1,2-a]pyridin-2-yl)methoxy)-4-hydroxypyridin-2-yl)-2-(4-methylpyrimidin-2-yl)cyclopropane-1-carboxamide], 1 to 10 nM; in that of `Cc1ccnc([C@H]2C[C@@H]2C(=O)Nc2cc(OCc3cn4cc(C5CC5)cc(N5CC(=O)N(C)C5=O)c4n3)nc(C(C)O)n2)n1` (stereo partly drawn) [Example 662, (1S,2S)—N-(6-((6-cyclopropyl-8-(3-methyl-2,4-dioxoimidazolidin-1-yl)imidazo[1,2-a]pyridin-2-yl)methoxy)-2-(1-hydroxyethyl)pyrimidin-4-yl)-2-(4-methylpyrimidin-2-yl)cyclopropane-1-carboxamide], below 1 nM.
